In patent US12345641B2, “Fluorescence quenching immunoassay” (IDEXX Laboratories, Inc., priority 2020, dated 2025):
No end group written: not given here.

Tests used:
[1] = Absorption and emission spectra of fluoresceins and SDMA conjugates (Example 33); format: physicochemical; details: PBS buffer
From the text: The maximum absorption of fluorescein (Fl) in PBS buffer is at 489 nm and the maximum fluorescence emission is at 515 nm. When the fluorescein molecule is conjugated with an SDMA molecule via a —CH2NH— linker (i.e., to provide SDMA-Fl), its maximum absorption and emission are shifted to 495 nm and 525 nm, respectively. When the fluorescein molecule is substituted by fluorine at the 2′ and 7′ positions (i.e., to provide DFF) there is no any change in the maximum absorption and emission compared to unsubstituted fluorescein. When the fluorescein molecule is substituted by chloride at the 2′ and 7′ positions (i.e., to provide DCF) the maximum absorption and emission are red-shifted to 500 nm and 525 nm, respectively. Also conjugating DFF or DCF to SDMA via a —CH2NH— linker (i.e., to provide SDMA-DFF and SDMA DCF, respectively) results in the maximum absorption and emission being red-shifted. The maximum absorption and emission wavelengths of fluorescein (FL), 2′,7′-difluorofluorescien (DFF), 2′,7′-dichlorofluorescien (DCF), and their conjugates with SDMA via a —CH2NH— linker (i.e., SDMA-Fl (i.e., structure A3), SDMA-DFF, and SDMA-DCF) are listed in the Table provided below. The absorption spectra of DFF, SDMA-DFF, DCF, SDMA-DCF, Fl, and SDMA-FL are depicted in FIG. 25A and the emission spectra of SDMA-DFF, SDMA-DCF, Fl, and SDMA-FL are depicted in FIG. 25B.

[2] = system: anti-T4 antibody; experiment: Maximum percentage fluorescence quenching of T2-F, T3-F, T4-F by anti-T4 antibody with and without quencher label (Example 27 table); format: binding
Protocol: In another experiment, tracer T2-F, T3-F, or T4-F was dissolved in DMSO to provide a DMSO solution at a tracer concentration of 1 mM. The DMSO solution was then diluted with phosphate buffered saline (“PBS”) to provide a stock solution of each tracer at a concentration of 10 μM. Monoclonal anti-T4-Mab or anti-T4-Mab conjugated to a quencher (Cy3-Ab, IRdyeQC1-Ab, Cy5-Ab, BHQ1-Ab) were serially diluted in PBS to provide solutions having an Anti-T4-Mab or anti-T4-Mab conjugated to quencher at concentration ranging from 0 to 2 μM. In a 96 well black assay plate containing the serially diluted Anti-T4-Mab or anti-T4-Mab conjugated to quencher (95 μL) was added the tracer T2-F, T3-F, or T4-F solution (5 μL), mixed well, and incubated for 30 min and the fluorescence intensities then recorded at an excitation wavelength of 485 nm and an emission wavelength of 520 nm. The results of maximum percentage fluorescence quenching for different tracers and quencher-modified antibodies are provided in the following Table: […]

[3] = system: anti-T4-Mab; experiment: Fluorescence of T3 tracers and anti-T4-Mab in the presence of T4 (Example 20); format: binding; details: PBS, tracer and antibody equimolar
Protocol: Similar solutions were prepared and the fluorescence measured except that the T3-F was replaced with T3-5-F, T3-E-F and T3-FITC.

[4] = system: Monoclonal anti-NT-proBNP antibody (ADX-15 Mab); experiment: Fluorescence quenching of canine NT-proBNP peptide-Fl/DFF conjugates by anti-NT-proBNP Mab and Ab-BHQ10 (Example 52); format: binding; details: for Percentage Fluorescence Quenching, DFF Conjugate, Ab-BHQ10 / Percentage Fluorescence Quenching, DFF Conjugate, Ab: NT-proBNP peptide-difluorofluorescein conjugate; for Percentage Fluorescence Quenching, DFF Conjugate, Ab-BHQ10 / Percentage Fluorescence Quenching, F1 Conjugate, Ab-BHQ10: mAb-BHQ10; for Percentage Fluorescence Quenching, DFF Conjugate, Ab-BHQ10 / Percentage Fluorescence Quenching, DFF Conjugate, Ab / Percentage Fluorescence Quenching, F1 Conjugate, Ab-BHQ10: molar ratio of 1:1; for Percentage Fluorescence Quenching, DFF Conjugate, Ab-BHQ10 / Percentage Fluorescence Quenching, DFF Conjugate, Ab / Percentage Fluorescence Quenching, F1 Conjugate, Ab / Percentage Fluorescence Quenching, F1 Conjugate, Ab-BHQ10: No = No Quenching; for Percentage Fluorescence Quenching, F1 Conjugate, Ab / Percentage Fluorescence Quenching, F1 Conjugate, Ab-BHQ10: NT-proBNP peptide-fluorescein conjugate; for Percentage Fluorescence Quenching, F1 Conjugate, Ab: Ab/Conjugate molar ratio of 1:1; for quenching of peptide-Fl or -DFF conjugates upon addition of antibody or antibody-BHQ10: any molar ratio from 1:1 to 8:1; for fluorescence quenching: ratio of 8:1; for fluorescence quenching reached (up to) by anti-NT-proBNP antibody: unmodified antibody, titration 0 to 800 nM
Protocol: NT-proBNP peptide-fluorescein (Fl) or -difluorofluorescein (DFF) conjugates were dissolved in DMSO (0.4 mM) and diluted with PBS to provide a stock solution (100 nM). Monoclonal anti-NT-proBNP antibody (ADX-15 Mab, IDEXX Laboratories Inc. of Westbrook, ME) (6.84 mg/ml) was serially diluted in PBS buffer to provide solutions having an antibody concentration ranging from 0 to 800 nM in PBS. In a 96 well black assay plate containing the serially diluted antibody solution (50 μL) was added the P1-Fl or P1-DFF, or other peptide-Fl or Peptide-DFF solution (50 μL), mixed well, incubated for 30 min and the fluorescence intensities recorded (excitation at 485 nm and emission at 520 nm). The results are provided in FIG. 47, FIG. 48, and Table 2.

[5] = system: anti-CysB Mab; experiment: Peptide/full length canine CysB protein dose response in Tris buffer and serum (Example 51); format: binding, mouse; details: for fluorescence intensity as a function of CysB peptide concentration: peptide 0 to 3200 nM added to mixture of antibody and P6-Fl or P6-DFF, Tris buffer
Protocol: A mixture of CysB P6-Fl or P6-DFF in Tris buffer with 0.1% Tween 20 (200 nM, 25 μL) and anti-Cys-Mab in Tris buffer with 0.1% Tween 20 (400 nM, 25 μL) was incubated at room temperature for 30 min in the wells of a 96 well black assay plate. A series of CysB peptides P6, P7, and P14 standard solutions having peptide concentrations ranging from 0 to 3200 nM (50 μL) were then added to the mixtures of the P6-Fl or P6-DFF and anti-CysB Mab in Tris Buffer. The plate was then incubated for 30 min at room temperature and the fluorescence intensities recorded at an excitation of 485 nm and an emission of 520 nm. The results are shown in FIG. 43, FIG. 44, FIG. 45, and FIG. 46.

[6] = system: Monoclonal anti-CysB antibody (7C2); experiment: Fluorescence quenching of canine CysB peptide-Fl/DFF conjugates by anti-CysB Mab or Mab-BHQ10 (Example 51); format: binding, mouse
Protocol: CysB peptide-fluorescein (Fl) or -difluorofluorescein (DFF) conjugates were dissolved in DMSO (0.5 mM) and diluted with Tris Buffer ([…] at pH8.0) to provide a stock solution (100 nM). Monoclonal anti-CysB antibody (7C2, raised against a peptide having the amino acid sequence of SEQ ID NO: 14) (8 mg/ml) was serially diluted in PBS buffer to provide solutions having an Anti-CysB-Mab concentration ranging from 0 to 800 nM in Tris buffer (50 mM at pH 8.0 with 0.5% sarkosyl (sodium lauroyl sarcosinate)). In a 96-well black assay plate containing the serially diluted Anti-CysB-Mab solution (50 μL) was added the peptide-Fl or peptide-DFF solution (50 μL), mixed well, incubated for 30 min and the fluorescence intensities recorded. The results are provided in FIG. 38, 39, 40, and Table 1.

## O=C1OC2(c3cc(Cl)c(O)cc3Oc3cc(O)c(Cl)cc32)c2ccccc21 [DCF, 2′,7′-dichlorofluorescien]
[1]
  Max Absorption: 500 nm
  Max Emision: 525 nm

## O=C1OC2(c3cc(F)c(O)cc3Oc3cc(O)c(F)cc32)c2ccccc21 [DFF, 2′,7′-difluorofluorescien]
[1]
  Max Absorption: 489 nm
  Max Emision: 515 nm

## O=C(O)c1ccccc1-c1c2ccc(=O)cc-2oc2cc(O)ccc12 [Fl, fluorescein]
[1]
  Max Absorption: 489 nm
  Max Emision: 515 nm
[1]; listed as FI
  Max Absorption: 483 nm

## CNC(=NCCCC(N)C(=O)NCc1c(O)c(Cl)cc2c(-c3ccccc3C(=O)O)c3cc(Cl)c(=O)cc-3oc12)NC (stereo not shown) [SDMA-DCF]
[1]
  Max Absorption: 510 nm
  Max Emision: 535 nm

## O=C(O)c1ccccc1-c1c2ccc(=O)cc-2oc2c(CNC(Cc3cc(I)c(Oc4ccc(O)cc4)c(I)c3)C(=O)O)c(O)ccc12 (stereo not shown) [T2-F]
[2]; anti-T4-Mab conjugated to BHQ1
  Percentage of fluorescence quenching, BHQ1-Ab: 11%
[2]; anti-T4-Mab conjugated to Cy5
  Percentage of fluorescence quenching, Cy5-Ab: 16%
[2]; anti-T4-Mab conjugated to IRdyeQC1
  Percentage of fluorescence quenching, IRdyeQC1-Ab: 8%
[2]; anti-T4-Mab without quencher
  Percentage of fluorescence quenching, Ab: 22%

## O=C(NC(Cc1cc(I)c(Oc2ccc(O)c(I)c2)c(I)c1)C(=O)O)c1ccc(-c2c3ccc(=O)cc-3oc3cc(O)ccc23)c(C(=O)O)c1 (stereo not shown) [T3-5-F, T3-5-Fluorescein]
[3]
  fluorescence quenching by anti-T4-Mab: not quenched

## O=C(O)c1ccccc1-c1c2ccc(=O)cc-2oc2c(CNCCNC(Cc3cc(I)c(Oc4ccc(O)c(I)c4)c(I)c3)C(=O)O)c(O)ccc12 (stereo not shown) [T3-E-F, T3-Ethyl-Fluorescein]
[3]
  fluorescence quenching by anti-T4-Mab: quenched

## O=C(O)c1cc(NC(=S)NC(Cc2cc(I)c(Oc3ccc(O)c(I)c3)c(I)c2)C(=O)O)ccc1-c1c2ccc(=O)cc-2oc2cc(O)ccc12 (stereo not shown) [T3-FITC]
[3]
  fluorescence quenching by anti-T4-Mab: not quenched

## AEQLAL [P2]
[4]
  Percentage Fluorescence Quenching, DFF Conjugate, Ab-BHQ10: No
  Percentage Fluorescence Quenching, DFF Conjugate, Ab: No
  Percentage Fluorescence Quenching, F1 Conjugate, Ab: No
  Percentage Fluorescence Quenching, F1 Conjugate, Ab-BHQ10: No
  quenching of peptide-Fl or -DFF conjugates upon addition of antibody or antibody-BHQ10: no quenching

## EPLHRS [P3]
[4]
  Percentage Fluorescence Quenching, DFF Conjugate, Ab-BHQ10: No
  Percentage Fluorescence Quenching, DFF Conjugate, Ab: No
  Percentage Fluorescence Quenching, F1 Conjugate, Ab: No
  Percentage Fluorescence Quenching, F1 Conjugate, Ab-BHQ10: No
  quenching of peptide-Fl or -DFF conjugates upon addition of antibody or antibody-BHQ10: no quenching

## GHDELAYF [P7, canine CysB peptide]
[5]
  fluorescence intensity as a function of CysB peptide concentration: a dose response was observed
[6]; CysB peptide conjugated to 5-position of difluorofluorescein, Ab/Conjugate ratio = 2/1
  Percentage Fluorescence Quenching, DFF Conjugate At 5-Position: 5%
[6]; CysB peptide conjugated to 5-position of fluorescein, Ab/Conjugate ratio = 2/1
  Percentage Fluorescence Quenching, F1 Conjugate At 5-Position: 5%

## NT-proBNP P6-Fl: NT-proBNP peptide LEPLHRS conjugated to 5-position of fluorescein (also: conjugated to 5-position of fluorescein, peptide site not given here)
[4]
  fluorescence quenching: approximately 10%

## P1-DFF: NT-proBNP peptide AEQLALEPLHRS conjugated to 5-position of DFF (also: conjugated to 5-position of DFF, peptide site not given here)
[4]
  fluorescence quenching reached (up to) by anti-NT-proBNP antibody-BHQ10: approximately 65%
  fluorescence quenching reached (up to) by anti-NT-proBNP antibody: approximately 70%

## P1-Fl: NT-proBNP peptide AEQLALEPLHRS conjugated to 5-position of fluorescein (also: conjugated to 5-position of fluorescein, peptide site not given here)
[4]
  fluorescence quenching reached (up to) by anti-NT-proBNP antibody-BHQ10: 40%
  fluorescence quenching reached (up to) by anti-NT-proBNP antibody: 70%

## P5-Fl: CysB peptide GELAYF conjugated to 5-position of fluorescein (also: conjugated to 5-position of fluorescein, peptide site not given here)
[6]; anti-CysB mAb
  quenching of 4′-position conjugate compared with 5-position conjugate: higher quenching

## P6-DFF: CysB peptide GDELAYF conjugated to 5-position of DFF (also: conjugated to 5-position of DFF, peptide site not given here)
[4]
  fluorescence quenching: approximately 10%
[6]; anti-CysB-Mab, molar ratio of about 4:1
  Maximum quenching: ~45%

## P6-Fl: CysB peptide GDELAYF conjugated to 5-position of fluorescein (also: conjugated to 5-position of fluorescein, peptide site not given here)
[6]
  quenching by anti-CysB Mab-BHQ10 relative to un-modified mAb: slightly higher
[6]; molar ratio of antibody to P6-Fl of about 8:1, unmodified anti-CysB-Mab
  fluorescence quenching: ~30%

## P7-Fl: CysB peptide GHDELAYF conjugated to 5-position of fluorescein (also: conjugated to 5-position of fluorescein, peptide site not given here)
[6]; anti-CysB-Mab
  fluorescence quenching relative to P6-Fl: weaker quenching

## YQTNKAKHDELAYF [P14]
[5]
  fluorescence intensity as a function of CysB peptide concentration: a dose response was observed

B1: CysB full length protein: canine cystatin-B, SEQ ID NO: 1 (protein, listed as Canis familiaris)
chain: MMCGAPSASQPATADTQAIADQVKAQLEERENKKYTTFKAVTFRSQVVAGTPYFIKVQVDDDEFVHLRVFQSLPHENKPLALSSYQTNKAKHDELAYF
[5]; added to mixture of antibody and tracer in the presence of varying concentrations of sarkosyl
  fluorescence intensity as a function of CysB full length protein concentration: a dose response was observed
[5]; antibody or antibody-BHQ10 with P6-Fl or P6-DFF, sarkosyl (1%)
  dose response of CysB full length protein in serum: dose response was also observed
